The values that follow come from US8318446B2, “DNA-damage-induced proteolysis” (California Institute of Technology, priority 2008, dated 2012).

One test concerns endogenous Htt. Description: Etoposide-induced Htt proteolysis in MESC2.10 neurons, Western blotting with anti-Htt mAb 2166. It counts as cell-based, human. The note with it: MESC2.10 neurons. An excerpt: Extracts were examined for Htt by Western blotting. […] Fold changes for full-length Htt levels were obtained by measuring the band intensity in each lane, normalized to tubulin and compared to non-treated control.
EGFP-lentivirus was used a control (C). […] Second and third panels show staining for Bcl-xL and pro-caspase-3, respectively. IKKγ levels were used as a loading control.
Neurons were harvested and separated into cytoplasmic and nuclear fractions using the NE-PER kit (PIERCE) according to instructions. For most experiments, ˜120 μg of lysate were used for SDS-PAGE and Western blotting with the indicated antibodies. Reactive bands in Western blots were detected by enhanced chemiluminescence (ECL) using a gel documentation system.

Another test deals with Bcl-xL. Description: Bcl-xL level in extracts of MESC2.10 neurons, Western blotting. It counts as cell-based, human. The note with it: MESC2.10 neurons, etoposide 6 hours. From the text:
FIG. 6A is a western blot showing the expression of Bcl-XL. Extracts of control and etoposide-treated MESC2.10 neurons were examined for Bcl-xL by Western blotting. […] Fold changes were normalized to the intensity of loading control, and compared to that of untreated control neurons (lane 5).
On the technique in general: Immunoblotting shows a protein as a band on a membrane.

The subject of test [1] is IKKα. Description: IKKα protein level in MESC2.10 neurons, western blot. It is filed as cell-based, human. An excerpt: Lysates were first treated with a combination of anti-IKKβ and IKKγ antibodies coupled to agarose beads to deplete IKKγ/IKKβ/IKKα complex. […] Fold changes of IKK activity were quantified by measuring the band intensity using Image J, and compared to non-treated neurons.
FIG. 3C is a western blot showing IKKα levels in the control and IKKα-expressing neurons. MESC2.10 neuroblasts were transduced with an IKKα recombinant lentivirus and differentiated as described below. EGFP lentivirus was used as a control.
IKKα was cloned into the lentiviral FUGW vector under the control of a ubiquitin promoter. An EGFP-lentivirus was used as a control. The Bcl-xL cDNA was cloned from MESC2.10 neurons by RT-PCR using standard procedures and its identity confirmed by sequencing. The cDNA was subsequently inserted into FUGW lentiviral vector. The shRNAs for IKKβ were cloned in a lentiviral backbone. Lentiviruses were produced by transfection of 293 cells using calcium phosphate precipitation. Supernatants of virus-producing cells were harvested 48 hr post-transfection and concentrated on Amicon Ultra columns. An EGFP virus was used as a control to monitor viral titer. A multiplicity of infection of 4:1 was used to infect MESC2.10 neuroblasts. Expression of IKKα, Bcl-xL and reduction of IKKβ were determined by Western blotting.

Test [2] has as its system IKKα. Description: IKKα kinase assay on IKKα complexes devoid of IKKβ from MESC2.10 neurons. It is filed as cell-based, human. The note with it: longer treatment with 10 μM etoposide.
Method: To determine IKKα activity, lyastes were first depleted of IKKβ complexes using 4 μg of anti-IKKγ and anti-IKKβ antibodies coupled to protein G. The depleted lysates were used to isolate IKKα complexes with 2 μg of anti-IKKα antibody. GST-IκBα was used as a substrate to measure kinase activity. To examine whether IKKs phosphorylate Bcl-xL, 0.5 μg of either IKKα or IKKβ were incubated with 1 μg of full-length Bcl-xL in the presence of 32P-γ-ATP for 30 min at 30° C. GST protein was used as a negative control. All kinase products were examined by SDS-PAGE and autoradiography.
To determine whether DNA damage influences IKKα activity, IKKα complexes devoid of IKKβ was obtained. Neuronal extracts were depleted by prior incubation with anti-IKKγ and anti-IKKβ antibodies, and IKKα complexes were subsequently immunoprecipitated.
In another test the test system is MESC2.10 neurons. Description: BrdU incorporation (cell cycle activation) in MESC2.10 neurons. The following applies: Day 6 differentiated neurons, 10 μM etoposide 4 hours, BrdU 1 mM. It counts as cell-based, human. The method, then:
BrdU incorporation was detected described in M&M. Image was captured with a confocal microscope.
BrdU (1 mM) was added and incubated for additional 2 hours. Cells were fixed in 5% paraformaldehyde followed by permeabilization in 70% methanol in PBS at −20° C. overnight. To denature chromatin, coverslips were immersed in 2 N HCl for 30 minutes at 37° C. and neutralized in 0.1 M borate buffer (pH 8.5) by washing 2 times for 5 minutes. To detect BrdU incorporation, coverslips were incubated with Rat-anti-BrdU (1:200). Anti-Tuj-1 (1:1000) was used to stain neurons. Goat anti rat conjugated to rhodamine and goat anti-mouse conjugated to FITC (1:500) were used as secondary. Pictures were captured with a confocal microscope.
On the technique in general: Incorporation of labelled thymidine or its analogues reports DNA synthesis.

Another test concerns p53. Description: Nuclear p53 in MESC2.10 neurons, western blotting. It counts as cell-based, human. The note with it: etoposide. An excerpt:
Nuclear extracts from MESC2.10 neurons were examined for the presence p53 by western blotting. Lanes 1-4 are nuclear extracts from MESC2.10 neurons with EGFP and lanes 5-8 are from neurons that were transduced with IKKα lentiviruses (FIG. 3C). Staining with anti-lamin B1 was used to ensure equal loading (bottom panel).

Test [3] deals with T1, caspase-3 (Homo sapiens, UniProt P42574).
T1 construct: Fifty μg of each lysate was incubated with either caspase-3 substrate (DEVD conjugated to p-nitroanaline); endogenous in cells; host or cells: differentiated MESC2.10 human neurons (lysates)
T1 sequence (P42574 1-277): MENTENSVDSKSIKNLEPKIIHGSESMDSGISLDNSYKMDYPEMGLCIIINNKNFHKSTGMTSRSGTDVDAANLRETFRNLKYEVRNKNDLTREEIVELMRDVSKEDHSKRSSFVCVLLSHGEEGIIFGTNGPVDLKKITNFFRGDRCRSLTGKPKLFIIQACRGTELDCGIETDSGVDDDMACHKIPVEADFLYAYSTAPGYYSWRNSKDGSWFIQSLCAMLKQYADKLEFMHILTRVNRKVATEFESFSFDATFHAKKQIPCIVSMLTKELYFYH
It counts as cell-based. The following applies: MESC2.10 neurons, 6 hrs of etoposide treatment, western blot.

Test [4] deals with caspase-3. It is filed as cell-based, human. The following applies: etoposide 6 hrs; DEVD-p-nitroanaline substrate; sodium salicylate 5 mg/ml 1 hour prior.
Test [5] has as its target T2, caspase-6 (Homo sapiens, UniProt P55212).
T2 construct: endogenous in cells; host or cells: differentiated MESC2.10 human neurons (lysates)
T2 sequence (P55212 1-293): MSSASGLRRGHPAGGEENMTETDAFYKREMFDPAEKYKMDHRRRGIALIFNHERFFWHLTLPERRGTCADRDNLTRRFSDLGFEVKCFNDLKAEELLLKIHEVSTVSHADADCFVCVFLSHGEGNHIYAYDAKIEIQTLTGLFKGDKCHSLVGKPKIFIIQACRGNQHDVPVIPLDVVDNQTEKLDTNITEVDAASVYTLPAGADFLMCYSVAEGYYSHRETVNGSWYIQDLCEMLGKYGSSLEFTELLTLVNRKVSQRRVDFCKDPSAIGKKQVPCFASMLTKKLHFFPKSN
It is filed as cell-based. The note with it: MESC2.10 neurons, 6 hrs of etoposide treatment, western blot.

Test [6] relates to caspase-6. It counts as cell-based, human. The following applies: etoposide 6 hrs; VEID-p-nitroanaline substrate; sodium salicylate 5 mg/ml 1 hour prior.
A further test relates to p65 NF-κB. Description: p65 NF-κB binding to consensus DNA oligonucleotides, nuclear extracts of MESC2.10 neurons. It counts as cell-based, human. The note with it: etoposide. As to the method:
Lanes 1-4 show p65 binding from nuclear extracts of control and lanes 5-8 show p65 binding from neurons transduced with a lentivirus expressing IKKα (FIG. 3C).
Wells with mutated NF-κB DNA oligonucleotides were used to ensure specificity of the binding (column 4).
Nuclear extracts for control or etoposide-treated MESC2.10 neurons were obtained using the cell fractionation kit from pierce according to the instructions provided. Fifty μg of each nuclear extract was incubated for an hour at room temperature on 96 well plates coated with consensus NF-κB oligonucleotides (p65 or p52). Mutated NF-κB oligonucleotides were used to confirm binding specificity. For competition assays, nuclear extracts were pre-incubated with NF-κB oligonucleotides for 1 hour on ice and then added to the coated wells. After washing, each well was incubated with anti-p65 or anti-p52 antibodies for 30 min at 37° C. Wells were washed, followed by incubation with a secondary antibody conjugated to HRP. TMB (3,3′,5,5′-tetramethylbenzidine) was added for 10 min. Binding was measured in a microplate reader at 655 nm.

Test [7] relates to full-length, mutant Htt protein. Description: Etoposide-induced proteolysis of mutant Htt in striatal Hdh^Q111/Q111 neurons. It counts as cell-based, mouse. The note with it: 10 μM etoposide for 6 hours. An excerpt:
Processing of samples was as described in FIG. 3A. […] IKKγ was used as loading control.

For `COc1cc([C@@H]2c3cc4c(cc3[C@@H](O[C@@H]3O[C@@H]5CO[C@@H](C)O[C@H]5[C@H](O)[C@H]3O)[C@H]3COC(=O)[C@H]23)OCO4)cc(OC)c1O` [etoposide], the “increase of the level of endogenous, full-length Htt” value in the test with endogenous Htt (10 μM etoposide, early time points) is given as ~4 fold. Moreover, the “time required for maximal Htt proteolysis” value with endogenous Htt (etoposide) was ~6 h. For the same compound, the “proteolysis of endogenous Htt caused by the agent” value in the test with endogenous Htt (longer exposure to 10 μM etoposide) is “induces proteolysis of endogenous Htt”. Further, the “level of intact Bcl-xL after etoposide” value in the test on Bcl-xL is “reduced”. The “level of IKKα protein after etoposide treatment” value in the test with IKKα [1] is reported as “decrease”. Besides, in the test on IKKα [2], the “IKKα kinase activity after etoposide treatment” value was “reduces IKKα activity”. Besides, the “cell cycle activation measured by BrdU incorporation” value in the test with MESC2.10 neurons is “promotes cell cycle activation”. Also, in the test on p53, the “nuclear p53” value was “accumulates in the nucleus”. Further, the “procaspase-3 level / activation” value on caspase-3 [3] is on record as “reduced”. Moreover, the “caspase-3 activity in neuronal extracts” value in the test with caspase-3 [4] is given as “elevated”. Further, the “procaspase-6 level / activation” value at caspase-6 [5] is recorded as “reduced”. Further, the “caspase-6 activity in neuronal extracts” value in the test on caspase-6 [6] was “elevated”. Moreover, in the test with p65 NF-κB, the “p65 NF-κB DNA binding activity” value was “activated p65 NF-κB DNA binding”. Further, the “cleavage of full-length mutant Htt caused by the agent” value in test [7] is recorded as “promoted cleavage of full-length, mutant Htt protein”.
